Measurements as given in patent publication US10076550B2, “Synergistic pharmaceutical composition for gastroinestinal disorders” (COUNCIL OF SCIENTIFIC & INDUSTRIAL RESEARCH, priority 2014, dated 2018).
Where a name gives a salt, the structure may show the parent alone. Marks after values point to notes of the source that are not given here.

Legend:
Assay type in all cases: in vivo
[1] = system: pylorus ligation induced ulcers; test: pylorus ligation (PL) induced ulcers in rats; settings: positive control, dose given as 50, mean ± SEM, six rats
Procedure: The effect of the composition as an antiulcer agent was further justified using pylorus ligation (PL)-induced ulcer model. […] The mentioned drugs were administered for a period of 5 days as described above and the rats were kept for 18 h fasting and care was taken to avoid coprophagy. Animals were anaesthetized and the abdomen was opened and pylorus ligation was done without causing any damage to its blood supply. After 4 h, stomachs were dissected out and cut open along the greater curvature and ulcers were scored in the glandular portion of the stomach as mentioned in aspirin induced ulcers.
The effect of the composition as an antiulcer agent was further justified using pylorus ligation (PL)-induced ulcer model.
The mentioned drugs were administered for a period of 5 days as described above and the rats were kept for 18 h fasting and care was taken to avoid coprophagy. Animals were anaesthetized and the abdomen was opened and pylorus ligation was done without causing any damage to its blood supply. After 4 h, stomachs were dissected out and cut open along the greater curvature and ulcers were scored in the glandular portion of the stomach as mentioned in aspirin induced ulcers.

aspirin induced ulcers = aspirin induced ulcers in rats; settings: aspirin 200 mg/kg, positive control, dose given as 50, mean ± SEM, six rats
Procedure: The effect of the composition on ulcers was evaluated using aspirin induced ulcer model. […] Ulcers were scored after 4 h. The animals were sacrificed and the stomach was then excised and cut along the greater curvature, washed carefully with 5.0 ml of 0.9% NaCl and ulcers were scored in the glandular portion of the stomach. Ulcer index was calculated by adding the total number of ulcers per stomach and the total severity of ulcers per stomach.
The effect of the composition on ulcers was evaluated using aspirin induced ulcer model.

[2] = system: cold restrained stress (CRS) induced ulcers; test: cold restrained stress (CRS) induced ulcers in rats; settings: positive control, dose given as 50, mean ± SEM, six rats
Procedure: The effect of composition was further observed on cold resistant stress model of ulcer. […] Rats were starved for 48 hours, and the drinking solution was removed 1 hour before starting experiments. For cold-restraint s tress, the rats were restrained in individual close-fitting tubular wire-mesh cages at 4° C. […] At the end of 2 hours, all the rats were sacrificed. The ulcer index was scored, based upon the product of length and width of the ulcers present in the glandular portion of the stomach (mm^2/rat).
The effect of composition was further observed on cold resistant stress model of ulcer. […] Rats were starved for 48 hours, and the drinking solution was removed 1 hour before starting experiments. For cold-restraint stress, the rats were restrained in individual close-fitting tubular wire-mesh cages at 4° C.

ethanol induced ulcers = ethanol induced ulcers in rats; settings: EtOH 1 ml/200 g, positive control, dose given as 50, mean ± SEM, six rats
Procedure: Further, effect of the composition was evaluated using ethanolinduced ulcer model. […] The ulcer index was scored, based upon the product of length and width of the ulcers present in the glandular portion of the stomach (mm^2/rat).
The ulcer index was scored, based upon the product of length and width of the ulcers present in the glandular portion of the stomach (mm^2/rat).

[3] = system: castor-oil induced diarrhea; test: castor oil induced diarrhea in rats; settings: reference drug 5.0 mg/kg p.o., 2 mL castor oil after 60 min, observed 4 h
Procedure: The efficacy of composition as an antidiarrheal agent was evaluated using castor oil induced diarrhea. The castor oil model has been an extensively used pharmacological test to screen and evaluate antidiarrheal properties of drugs in rats. The liberation of ricinoleic acid from castor oil results in irritation and inflammation of intestinal mucosa, leading to release of prostaglandins, which stimulates motility and secretion (Pierce, N. F., Carpenter. C. C. J., Elliiot, H. Z. and Greenough, W. B., Effects of prostaglandins, Theophylline and cholera exotoxin upon transmucosalwater and electrolyte movement in canine jejunum, Gastroenterology, 1971; 60: 22-32). Castor oil is also reported to induce diarrhea by increasing the volume of intestinal content by prevention of the reabsorption of water. […] After 60 min each animal was given with 2 mL of castor oil by orogastric cannula, and placed in a separate cage and observed for 4 h defecation the characteristic diarrheal droppings were noted and recorded.
The castor oil model has been an extensively used pharmacological test to screen and evaluate antidiarrheal properties of drugs in rats. […] After 60 min each animal was given with 2 mL of castor oil by orogastric cannula, and placed in a separate cage and observed for 4 h defecation the characteristic diarrheal droppings were noted and recorded.

SMILES	Ulcer Index [1]	Ulcer Index (aspirin induced ulcers)	Ulcer Index [2]	Ulcer Index (ethanol induced ulcers)	Total number of faecal matter [3]
CNC(=C[N+](=O)[O-])NCCSCc1ccc(CN(C)C)o1 [Ranitidine, ranitidine]	4.9 ± 1.3^b	7.6 ± 1.4^a	6.9 ± 1.0^c mm^2/rat	10.3 ± 2.8^a mm^2/rat	
CCOC(=O)C1(c2ccccc2)CCN(CCC(C#N)(c2ccccc2)c2ccccc2)CC1 [DiphenoxylateHCl, diphenoxylate HCl]					19
